Reference: patent US5990208A, “Stabilization of polycarbonate/ABS blends with mixtures of hindered amines and UV absorbers” (Ciba Specialty Chemicals Corporation, priority 1997, dated 1999)

Key:
[1] = pKa of hindered amines by non-aqueous titration; assay type: physicochemical; details: extrapolated from calibration plot
Excerpt: The pKa measurements of the hindered amines are obtained by non-aqueous titration. Organic reference materials with known pKa values in water, are titrated in non-aqueous media (1:1 acetonitrile:chloroform and 0.1 N perchloric acid/dioxane titrant system) to generate a non-aqueous calibration plot of half-neutralization potential (HNP) versus pKa. The "unknown" hindered amines are then titrated to determine the HNP, and extrapolated to obtain the corresponding pKa from this calibration plot.

[2] = Weight loss of additive by thermogravimetric analysis (TGA); assay type: physicochemical; details: 5° C./min, nitrogen; for Temperature at which stated weight loss of additive occurs, 10%: 10% weight loss; for Temperature at which stated weight loss of additive occurs, 5%: 5% weight loss
Method: Weight loss data for the hindered amines are obtained by thermogravimetric analysis on a DuPont model 2100 analyzer, operated at a scan rate of 5° C./min in a nitrogen atmosphere using 4-5 mg sample in aluminum pans.

[3] = Discoloration (delta E), Dry XAW, two-pass compounded clear PC/ABS (Example 6); details: in words
Method: Accelerated weathering is performed using an Atlas Ci65A Weather-o-meter ("XAW"), operated in either "Dry XAW" mode (ASTM G26-90 method C) or interior auto ("IAXAW") (black panel temperature 89° C., light/dark cycle 3.8 hr/1.0 hr; irradiance 0.55 watt/m^2, inner filter-quartz, outer filter--high borate.
Yellowness Index and delta E color are performed as per ASTM D-1925, using a Chroma-Sensor CS-5 Colorimeter, operated at 10 degree, small area view, specular included.
This polymer blend is prepared by two-step compounding. The hindered amine is extrusion compounded with ABS on a 18 mm twin screw extruder with set temperatures (throat to die, ° C.) of 170/200/215/225/225/225. The ABS is optionally redried then extrusion compounded with an equal weight of polycarbonate to achieve a 50/50 wt/wt ratio blend. TINUVIN® 234 is added during the second extrusion compounding step although the UV absorber can also be added during the first compounding step.
Thereafter, chip impact bars are prepared and subjected to dry XAW accelerated weathering. The samples are removed at selected intervals for color measurement and then for destructive chip impact testing.

Structure (SMILES)	Approximate pKa [1]	Temperature at which stated weight loss of additive occurs, 1% ([2]; 1% weight loss (printed in 5% column)) [°C]	Temperature at which stated weight loss of additive occurs, 10% [2] [°C]	Temperature at which stated weight loss of additive occurs, 2% ([2]; 2% weight loss (printed in 5% column)) [°C]	color stability [3]	Temperature at which stated weight loss of additive occurs, 5% [2] [°C]
CC(C)(c1ccccc1)c1cc(-n2nc3ccccc3n2)c(O)c(C(C)(C)c2ccccc2)c1 [TINUVIN® 234, 2-(2-hydroxy-3,5-di-α-cumylphenyl)-2H-benzotriazole]	–	–	–	–	reasonably equivalent color stability	–
CC1(C)CN(CCN(c2nc(N(CCN3CC(C)(C)NC(C)(C)C3=O)C3CCCCC3)nc(N(CCN3CC(C)(C)NC(C)(C)C3=O)C3CCCCC3)n2)C2CCCCC2)C(=O)C(C)(C)N1 [GOODRITE ® 3150, 1,3,5-tris{N-cyclohexyl-N-[2-(3,3,5,5-tetramethylpiperazin-2-on-1-yl)ethyl]amino}-s-triazine]	~6.7	–	362	–	reasonably equivalent color stability	345

Further lines, with some results ahead:

Approximate pKa [1]	Temperature at which stated weight loss of additive occurs, 1% ([2]; 1% weight loss (printed in 5% column)) [°C]	Temperature at which stated weight loss of additive occurs, 10% [2] [°C]	Temperature at which stated weight loss of additive occurs, 2% ([2]; 2% weight loss (printed in 5% column)) [°C]	Structure (SMILES)	color stability [3]	Temperature at which stated weight loss of additive occurs, 5% [2] [°C]
~9.0	200	260	–	CC1(C)CC(OC(=O)CCCCCCCCC(=O)OC2CC(C)(C)NC(C)(C)C2)CC(C)(C)N1 [TINUVIN ® 770, bis(2,2,6,6-tetramethylpiperidin-4-yl) sebacate]	–	–
~4.4	–	236	–	CCCCCCCCON1C(C)(C)CC(OC(=O)CCCCCCCCC(=O)OC2CC(C)(C)N(OCCCCCCCC)C(C)(C)C2)CC1(C)C [TINUVIN ® 123, bis(1-octyloxy-2,2,6,6-tetramethylpiperidin-4-yl) sebacate]	–	222
~6.1	–	372	319	CN1C(C)(C)CN(CCN(c2nc(N(CCN3CC(C)(C)N(C)C(C)(C)C3=O)C3CCCCC3)nc(N(CCN3CC(C)(C)N(C)C(C)(C)C3=O)C3CCCCC3)n2)C2CCCCC2)C(=O)C1(C)C [GOODRITE ® 3159, 1,3,5-tris{N-cyclohexyl-N-[2-(3,3,4,5,5-pentaamethylpiperazin-2-on-1-yl)ethyl]amino}-s-triazine]	–	–
